This note sets out measurements from patent US20220175721A1, “TREATMENT FOR POLYCYSTIC OVARIAN SYNDROME (PCOS)” (Cadila Healthcare Limited, priority 2019, published 2022).

Type in all cases: in vivo
The test system of test [1] is letrozole-induced PCOS in female Zucker fa/fa rats. Put plainly: Insulin tolerance test in letrozole-induced PCOS rats. The conditions noted are these: (Ia) 4 mg/kg. Here is the method: (§1) Female Zucker fa/fa rats (6-8 weeks) were issued from animal house of Zydus research Centre and quarantined for 7 weeks. At the age of 13-15 weeks all animals were administered Letrozole (1 mg/kg/2 ml) orally for 4 weeks to induce PCOS.
(§2) After 4 weeks of Letrozole, all animals with confirmed PCOS on basis of body weight and estrous cycle were randomized. […] Letrozole (1 mg/kg/2 mL) treatment was continued.
Continuing compound of formula (Ia) treatment for next two days, insulin tolerance test was performed after 6 h fast. […] Whole blood glucose was estimated using One-touch ultra-blood glucose meter. Blood glucose levels were then estimated at 0, 15, 30, 60 and 120 min corresponding to the insulin injection.

The test system is the same in test [2]. The experiment in a line: Serum LH, FSH and testosterone (ELISA) in letrozole-induced PCOS rats. The conditions noted are these: (Ia) 4 mg/kg. The method, then:
as §1, §2
After 4 weeks of compound of formula (Ia) treatment, Insulin was subcutaneously injected at 1.5 U/kg regular insulin and 2 g/kg glucose load was administered orally. Blood was collected 40 min following injection. Serum samples were analyzed for LH, FSH and testosterone using ELISA kit according to manufacturer's instructions.

Test [3] concerns Letrozole-induced polycystic ovary syndrome (PCOS) in female Wistar rats. The experiment in a line: Histological count of cystic follicles in letrozole-induced PCOS rats. Here is the method:
Sixty female Wistar rats (7-8 weeks) were issued from animal house of Zydus research Centre and quarantined for 4 weeks. At the age of 11-12 weeks all animals were randomized on body weight basis into two treatment groups, namely, vehicle (n=10) as non-PCOS or Letrozole (n=50) for PCOS. Formulated Letrozole (1 mg/kg/2 ml) were administered orally for 4 weeks to induce PCOS.
After 4 weeks of Letrozole, all animals with confirmed PCOS on basis of body weight and estrous cycle were randomized. After randomization, animals were assigned to either Vehicle control or Compound of Formula (Ia) (4 mg/kg, PO) treatment (n=8). Letrozole (1 mg/kg/2 mL) treatment was continued. Rest of the animals was sacrificed.
At the end of treatment, animals were sacrificed by cervical dislocation and ovaries were collected in 10% formalin. Ovaries were processed and embedded in paraffin and subjected to serial sectioning at 3-5 μm using rotary microtome, and sections were transferred on glass slides and stained with haematoxylin-eosin (H and E). The evaluation was done using light microscope and grading of the tissue pathological status was done. Total numbers of cystic follicles were counted on all sections throughout each ovary.

Test [4] has as its system letrozole-induced PCOS in female Zucker fa/fa rats. Put plainly: Ovaries weight in letrozole-induced PCOS rats. The conditions noted are these: (Ia) 4 mg/kg; for Ovaries weight, % Change Vs Vehicle Control / Ovaries weight: after 4 weeks of oral treatment, metformin 200 mg/kg; for Ovaries weight: Mean±SEM, n=6. The method, then: Female Zucker fa/fa rats (6-8 weeks) were issued from animal house of Zydus research Centre and quarantined for 7 weeks. At the age of 13-15 weeks all animals were administered Letrozole (1 mg/kg/2 ml) orally for 4 weeks to induce PCOS. […] Letrozole (1 mg/kg/2 mL) treatment was continued. At the end of study, animals were sacrificed by cervical dislocation and ovaries were collected and weighed.

The mark [5] stands for this setting: repeated dose oral treatment, alone or with metformin 200 mg/kg.
The mark [6] stands for this setting: after 4 weeks of oral treatment, metformin 200 mg/kg.
Setting [7] is: after 4 weeks of oral treatment, metformin 200 mg/kg, Mean±SEM, n=6.
The mark [8] stands for this setting: 4 mg/kg, individual animal mean of 6 sections.
[9] abbreviates: 4 mg/kg, individual animal, ovary sections 1-6.

Values joined by “and” are separate entries in the source; they are usually repeats but may differ in a detail not shown here. Equal values may be shown once.

In the case of `CCO[C@@H](Cc1ccc(OCCn2c(C)ccc2-c2ccc(SC)cc2)cc1)C(=O)O` [Compound of Formula (Ia), Saroglitazar Magnesium], the “AUC glucose, % Change Vs Vehicle Control” value in test [1] (insulin tolerance test after 4 weeks of oral treatment, metformin 200 mg/kg) was −37.4 ± 4.9%. Further, in test [1] (insulin tolerance test after 4 weeks of oral treatment, metformin 200 mg/kg, Mean±SEM, n=6), the “AUC glucose (120 min*mg/dL)” value is 6819.0 ± 535.8 mg·min/dL. Moreover, in test [1] (setting [5]), the “insulin sensitivity (in words)” value is “significantly improved”. Also, in test [2] (setting [6]), the “LH/FSH ratio, % Change Vs Vehicle Control” value is given as −17.1 ± 6.0%; the “Serum FSH, % Change Vs Vehicle Control” value amounted to 32.3 ± 4.5%; the “Serum LH, % Change Vs Vehicle Control” value worked out at 9.9 ± 7.4%; the “Serum testosterone, % Change Vs Vehicle Control” value was −61.8 ± 4.7%. Moreover, in test [2] (setting [7]), the LH/FSH ratio is 1.2 ± 0.1, the “Serum FSH” value stood at 103.1 ± 3.5 ng/mL, the “Serum LH” value worked out at 121.4 ± 8.2 ng/mL and the “Serum testosterone” value is 1.6 ± 0.2 ng/mL. In addition, in test [2] (repeated dose oral treatment), the “LH/FSH ratio (in words)” value is “decreased” and the “serum FSH (in words)” value is “increased”. In addition, in test [2] (setting [5]), the “serum testosterone (in words)” value is “decreased”. In test [3] (setting [8]), the “cystic follicles, Mean of ovary sections, Animal-9” value is listed as 3.50; the “cystic follicles, Mean of ovary sections, Animal-10” value stood at 3.50; the “cystic follicles, Mean of ovary sections, Animal-11” value is on record as 7.50; the “cystic follicles, Mean of ovary sections, Animal-12” value came out at 3.83. In addition, in test [3] (setting [8]), the “cystic follicles, Mean of ovary sections, Animal-13” value is listed as 2.00; the “cystic follicles, Mean of ovary sections, Animal-14” value was 4.67; the “cystic follicles, Mean of ovary sections, Animal-15” value was found to be 3.83; the “cystic follicles, Mean of ovary sections, Animal-16” value worked out at 9.50. Besides, in test [3] (setting [9]), the “cystic follicles per ovary section, Animal-9” value was 4 (3×) and 3 (3×); the “cystic follicles per ovary section, Animal-10” value is 3 (3×) and 4 (3×); the “cystic follicles per ovary section, Animal-11” value was 7 (3×) and 8 (3×); the “cystic follicles per ovary section, Animal-12” value was 4 and 3 (3×) and 5 (2×). In addition, in test [3] (setting [9]), the “cystic follicles per ovary section, Animal-13” value came out at 2; the “cystic follicles per ovary section, Animal-14” value was 5 (4×) and 4 (2×); the “cystic follicles per ovary section, Animal-15” value is 4 and 3 (3×) and 5 (2×); the “cystic follicles per ovary section, Animal-16” value is 11 (3×) and 10 and 2 and 12. For the same compound, the “Number of cystic follicle, % Change Vs Vehicle control” value in test [3] (after 4 weeks of treatment, 4 mg/kg PO) is listed as −56.6 ± 7.9%. For the same compound, the “Number of cystic follicle” value in test [3] (after 4 weeks of treatment, 4 mg/kg PO, Mean ± SEM, n=8) was 4.79 ± 0.87. Besides, the “occurrence of cystic follicles (in words)” value in test [3] (female Wistar rats, PCOS induced using Letrozole) was “significantly decreased”. Besides, in test [4], the “Ovaries weight, % Change Vs Vehicle Control” value is on record as −20.7 ± 3.5% and the “Ovaries weight” value turned out to be 137.2 ± 6.1 mg. Besides, in test [4] (setting [5]), the “ovary weight (in words)” value was “normalized”.
Take `CN(C)C(=N)N=C(N)N` [Metformin, reference compound]: in test [2] (setting [6]), the “Serum FSH, % Change Vs Vehicle Control” value is reported as 4.4 ± 3.6%; the “Serum LH, % Change Vs Vehicle Control” value was 0.81 ± 3.1%; the “Serum testosterone, % Change Vs Vehicle Control” value is listed as −2.4 ± 4.1%. Besides, in test [2] (setting [7]), the “Serum FSH” value is 85.3 ± 3.2 ng/mL, the “Serum LH” value is reported as 109.6 ± 9.2 ng/mL and the “Serum testosterone” value is given as 4.0 ± 0.9 ng/mL. In test [4], the “Ovaries weight, % Change Vs Vehicle Control” value is on record as −2.4 ± 4.1% and the “Ovaries weight” value was 169.8 ± 11.9 mg.
